Reference: patent US20250262146A1, “PLATFORM NANOPARTICLE TECHNOLOGY FOR SUSTAINED DELIVERY OF HYDROPHOBIC DRUGS” (UNIVERSITY OF MARYLAND, BALTIMORE, priority 2022, published 2025)

Key:
[1] = system: MOLM14 human acute myeloid cells; assay: MTT cytotoxicity assay, MOLM14; assay type: cell-based; details: concentration 0.0025 mg/mL
Description: The MOLM14 AML cell line, MV4;11, and THP1 cell lines were cultured and incubated in RPMI 1640 medium with 10% FBS at 37° C. and air containing 5% CO2. When the cells reached about 70% confluency, the cells were split with a density of 40,000 cells per cm^2. Adult Retinal Pigment Epithelial (ARPE-19) cells were grown in Dulbecco's Modified Eagle Medium (DMEM)/F12 (1:1) with 10% FBS and 1% Penicillin-Streptomycin (Pen-Strep). Dental Pulp Stem Cells (DPSCs) were grown in DMEM with glutamine and 10% FBS and 1% Pen-Strep. A Hemolysis assay kit was purchased from Creative Biolabs™.
The cytotoxicity of plain nanogels, plain SDS nanogels and 2, 5, 10 and 15 wt % ART631-loaded NanoART631 were assessed using thiazolyl blue tetrazolium bromide (MTT) and WST1 assays against MOLM14 human acute myeloid cells, MV4;11 cells, THP1 cells, normal adult retinal pigment epithelium-19 (ARPE-19) cells, and dental pulp stem cells (DPSCs). […] Pure ART631, ART838, 5 and 10 wt % NanoART631 IC50 were determined by adding 5e^−6, 5e^−5, 5e^−4, 6.25e^−4, 0.001, 0.0025, 0.005, 0.01, 0.05, 0.1, 0.2, 0.5, 1, 5, 10 mg·mL-1 of the formulation to MOLM14 AML cells. […] Absorbance was read at 570 nm using a BioTek™ cytation 5 microplate reader for all experiments after removing all the wells contents and then dissolving the formazan crystals in 150 μL of DMSO. […]

[2] = Water solubility of ART631, alone and loaded into nanogels; assay type: physicochemical; details: drug without nanogel
[3] = system: 9 human leukemia cell lines; details: 9 human leukemia cell lines in vitro; cited from earlier work

C[C@@H]1CCC2[C@@H](C)[C@@H](CC(COP(=O)(Oc3ccccc3)Oc3ccccc3)C[C@H]3O[C@@H]4O[C@@]5(C)CCC6[C@H](C)CCC([C@H]3C)[C@]64OO5)O[C@@H]3O[C@@]4(C)CCC1[C@@]23OO4 (stereo partly shown) [ART838]
MOLM14 cells killed [1]: 64%

C=CCO/N=C(/C[C@H]1O[C@@H]2O[C@@]3(C)CC[C@H]4[C@H](C)CC[C@@H]([C@H]1C)[C@@]24OO3)[C@H]1O[C@@H]2O[C@@]3(C)CC[C@H]4[C@H](C)CC[C@@H]([C@H]1C)[C@@]24OO3 [ART631]
MOLM14 cells killed [1]: 67% | solubility [2]: < 10 µg/mL | IC50 [3]: < 0.045 µM
